Earlier results on 1 substance are cited in paper PMC6640857 (Tetrahedron, 2019).

The conditions of this series: relative to vancomycin; cited from earlier work.

Turning to “chlorobiphenylmethyl (CBP-)vancomycin [compound 2]”, the “enhancement of antimicrobial potency by the CBP modification” value is recorded as at most 100 fold.
